In patent US12673926B2, “Tetrazine compounds for in vivo imaging” (KØBENHAVNS UNIVERSITET, priority 2018, dated 2026):

How the values were obtained:
[1] = TCO click ability; conditions: TCO-KSMO in PBS, TLC
Procedure: To a solution of TCO-KSMO (the polymer) 500 μL (1 mg/mL) PBS was added 100 μL of the formulated tetrazine.
In given time intervals, 2 μL of the solution was withdrawn and quenched with 20 μL of a 3 mg/mL bispyridine-tetrazine solution. TLC (EtOAc) determined the fraction of tetrazines reacted to the TCO. (tetrazine; front, 1,4 adduct; baseline)

[2] = Rate constant measurements (stopped-flow, pseudo-first order); conditions: at 25° C.
Procedure: Based on these encouraging results, a study was performed to investigate whether the identified labeling conditions could be applied to Tzs that are more reactive. In this respect, Tz's with stepwise increased reactivity have been tested. […] Synthesis of respective reference compounds and precursors was completed in the same manner as discussed before. Respective second-order rate constants were determined via stopped-flow measurements. […] Radiolabeling was studied using the best aliquot conditions identified in our previous experiments. RCC for [^18F]7, [18F]8 and [^18F]9 were 35%, 30%, and 33%, respectively.
[…] Measurements were performed using a SX20 stopped flow photometer (Applied Photophysics, UK) equipped with a 360 nm LED light source and a photomultiplier type R374 in combination with a 400 nm longpass filter as detector.

[3] = Blood stability (TLC data); format: in vitro ADME; conditions: mice whole blood, 37° C., 0 min
[4] = Blood stability (TLC data); format: in vitro ADME; conditions: mice whole blood, 37° C.
Procedure: (§1) Blood stability was tested by mixing 250 μL mice whole blood with 250 μL of the formulated Tz, the mixture was heated and shaken at 37° C. At given time points 1, 2, 3, 5, 10, 20, 60 and 180 min, 20 μL were withdrawn and cooled to 0° C. At the same time points, 20 μL were added to a 20 μL of a solution of 1 mg/mL KSMO (TCO-Polymer) in PBS and left at RT for 1 h.
(§2) The mixtures were then centrifuged at 4200 rpm for 3 min, before ACN (40 μL) was added and centrifuged again for 3 min at 4200 rpm. The supernatant was withdrawn and analyzed with TLC and/or HPLC.

[5] = TCO click ability after incubation in blood; set-up: species or system mice; conditions: KSMO 1 h RT
Procedure: as §1, §2

[6] = Pretargeted PET/CT imaging with TCO-BP pretreatment; format: in vivo, Balb/c mice; conditions: BP-TCO pretreated mice vs controls; i.v.; 60 min dynamic PET
Procedure: All animal studied were approved by the Danish Animal Welfare Council, ministry of Justice. Five weeks old female Balb/c mice (Charles River) were acclimatized for one week with access to water and chow ad libitum. Trans-cyclooctene functionalized bisphosphonates (TCO-BP's) (100 μg. 100 μl PBS) were injected i.v. (n=2), and 1 hour later animals were administered i.v. with [^18F]9 (ca 4MBq) via the tail vein.
The animals were scanned on a dedicated small animal PET/CT scanner (Siemens) during which they were kept anesthetized by breathing sevoflurane and their temperature maintained by heating pad. Immediately after injection of [^18F]9, the animals were moved to a small animal PET/CT scanner and a 60 min dynamic PET acquisition (energy window of 350-650 KeV and a time resolution of 6 ns) was performed followed by a CT scan (360 projections, 65 kV, 500 ρA and 400 ms). Sinograms from PET scans were framed and reconstructed using a 3-dimensional maximum a posteriori algorithm with CT-based attenuation correction. PET and CT images were co-registered and analysed using Inveon software (Siemens). The mean percentage of injected dose per grams (% ID/g) in different tissues was extracted by manually creating regions of interest on fused PET/CT images.
The bioorthogonal chemistry employed is illustrated in FIG. 1. […]

[7] = after 0 min in mice whole blood at 37° C.
[8] = after 1 min in mice whole blood at 37° C.
[9] = after 2 min in mice whole blood at 37° C.
[10] = after 3 min in mice whole blood at 37° C.
[11] = after 5 min in mice whole blood at 37° C.
[12] = after 10 min in mice whole blood at 37° C.
[13] = after 20 min in mice whole blood at 37° C.
[14] = after 60 min in mice whole blood at 37° C.
[15] = after 180 min in mice whole blood at 37° C.

SMILES	fraction of tetrazines reacted to the TCO ([1]; 30 sec) [%]	fraction of tetrazines reacted to the TCO ([1]; 1 min) [%]	fraction of tetrazines reacted to the TCO ([1]; 2 min) [%]	fraction of tetrazines reacted to the TCO ([1]; 3 min) [%]	fraction of tetrazines reacted to the TCO ([1]; 5 min) [%]	Second-order rate constant k2 [2] [M⁻¹ s⁻¹]	Stability [3] [%]	Stability ([4]; 1 min) [%]	Stability ([4]; 2 min) [%]	Stability ([4]; 3 min) [%]	Stability ([4]; 5 min) [%]	Stability ([4]; 10 min) [%]	Stability ([4]; 20 min) [%]	Stability ([4]; 60 min) [%]	Stability ([4]; 180 min) [%]	TCO click ability [5, 7] [%]	TCO click ability [5, 8] [%]	TCO click ability [5, 9] [%]	TCO click ability [5, 10] [%]	TCO click ability [5, 11] [%]	also measured
Cc1nnc(-c2ccc([18F])cc2)nn1 [[^18F]6]	100	100	100	100	100	2.25	–	–	–	–	–	–	–	–	–	–	–	–	–	–	–
Cc1nnc(-c2cccc([18F])c2)nn1 [[^18F]7]	100	100	100	100	100	–	94	95	96	95	95	96	96	96	77	100	100	100	100	100	TCO click ability [5, 12]: 100%; TCO click ability [5, 13]: 100%; TCO click ability [5, 14]: 100%; TCO click ability [5, 15]: 100%
[18F]c1ccc(-c2nncnn2)cc1 [[^18F]8]	–	100	100	100	100	159	90	72	85	89	88	90	89	88	82	100	100	100	100	100	TCO click ability [5, 12]: 100%; TCO click ability [5, 13]: 100%; TCO click ability [5, 14]: 100%; TCO click ability [5, 15]: 100%
[18F]c1cccc(-c2nncnn2)c1 [[^18F]9]	100	100	100	100	–	222	–	–	–	–	–	–	–	–	–	–	–	–	–	–	fraction of tetrazines reacted to the TCO ([1]; 15 sec): 100%; PET uptake in bones (knee), the target region of BP-TCOs, compared to controls [6]: higher uptake; PET uptake in control region (the heart), treated vs non-treated mice [6]: no differences could be detected
